Converted amounts (≈) assume the structure as drawn.
What follows are molecules tested on Micrococcus luteus (assay: MIC liquid tube assay (antibiotic activity)). Details: Micrococcus luteus; liquid tube assay in nutrient broth, 37° C., growth observed after 24 and 48 hours; MIC = last concentration where growth inhibited; read-out: MIC.
Assay type: cell-based
Procedure: Micrococcus luteus from stock was streaked on a nutrient agar plate to confirm colony morpbiology, colour and purity. After 24 hours incubation at 37° C. an isolated colony is picked and inoculated into 10 ml of nutrient broth. This is incubated overnight at 37° C. and is subsequently used as the inoculum. 10 mg of each of the test compounds is weighed and dissolved in 10 ml of […] methanol in sterile 20 ml universal containers. This is then diluted with ringers buffer solution to give a concentration of 1 mg/ml. Quantitation of activity is determined using an MIC ([…]) liquid tube assay. For each test substance the following concentrations are set up: 10 μg/ml, 5 μg/ml, 1 μg/ml, 0.5 μg/ml, 0.1 μg/ml, 0.05 μg/ml and 0.01 μg/ml. Each contained nutrient broth and 0.1 ml of overnight culture of Micrococcus luteus. The tubes were incubated at 37° C. and observed for growth after 24 hours and 48 hours. Growth is assessed by dense turbidity, optical density at 660 nm using a spectrophotometer or clarity. The MIC is the last concentration where growth inhibited.

| Molecule | MIC [µg/mL] |
| --- | --- |
| CC[C@H]1OC(=O)[C@H](C)[C@@H](O[C@H]2C[C@@](C)(OC)[C@@H](O)[C@H](C)O2)[C@H](C)[C@@H](O[C@@H]2O[C@H](C)C[C@H](N(C)C)[C@H]2O)[C@](C)(OC)C[C@@H](C)C(=O)[C@H](C)[C@@H](O)[C@]1(C)O [Clarithromycin] | ≤ 0.01 |
| CCC(=O)O[C@H]1[C@H](O[C@@H]2[C@@H](C)[C@H](O[C@H]3C[C@@](C)(OC)[C@@H](O)[C@H](C)O3)[C@@H](C)C(=O)O[C@H](CC)[C@@](C)(O)[C@H](O)[C@@H](C)C(=O)[C@H](C)C[C@@]2(C)O)O[C@H](C)C[C@@H]1N(C)C [Erythromycin-propionate, Erythromycin Propionate, reference compound] | 0.01 to 0.05 (≈ 0.0127 to 0.0633 µM) |

Same assay, conditions: liquid tube assay in nutrient broth, 37° C., growth observed after 24 and 48 hours; MIC = last concentration where growth inhibited

| Molecule | MIC |
| --- | --- |
| CC(=O)N[C@@H](CS)C(=O)O.CC[C@H]1OC(=O)[C@H](C)[C@@H](O[C@H]2C[C@@](C)(OC)[C@@H](O)[C@H](C)O2)[C@H](C)[C@@H](O[C@@H]2O[C@H](C)C[C@H](N(C)C)[C@H]2O)[C@](C)(OC)C[C@@H](C)C(=O)[C@H](C)[C@@H](O)[C@]1(C)O [Clarithromycin-N-acetylcysteinate [1:1], Clarithromycin-N-Acetylcysteinate-[1:1]-Salt] | ≦0.01 μg/ml |
| Clarithromycin-N-Acetylcysteinate-[1:4]-Salt [Clarithromycin-N-acetylcysteinate [1:4]] | 0.01 to 0.05 µg/mL |
| Erythromycin Propionate-N-Acetylcysteine [1:1.8]-Adduct [Erythromycin-N-acetylcysteinate [1:1.8]] | ≦0.01 μg/ml |
| Erythromycin Propionate-N-Acetylcysteine [1:4]-Adduct [Erythromycin-N-acetylcysteinate [1:4]] | 0.05 to 0.1 µg/mL |
| Erythromycin Propionate-N-Acetylcysteine-[1:1]-Salt [Erythromycin-N-acetylcysteinate [1:1]] | 0.01 to 0.05 µg/mL |
